Measured values as given in US20240269128A1, “COMPOUNDS FOR TREATING OR PREVENTING ALZHEIMER'S DISEASE” (THE UNITED STATES OF AMERICA, as represented by the …, priority 2021, published 2024).

Experiments:
[1] = test system: murine microglial cell line BV-2; assay: LPS-induced neuroinflammation in BV-2 microglial cells (cytokines by MSD V-PLEX, MTT); format: cell-based, mouse
Procedure: Lipopolysaccharide (LPS)-Induced Neuroinflammation: The murine microglial cell line BV-2 was cultivated in DMEM medium supplemented with 10% FCS, 1% penicillin/streptomycin and 2 mM L-glutamine (culture medium). For LPS stimulation assay, 5000 BV-2 cells per well (uncoated 96 well plates) were plated out and the medium was changed to treatment medium (DMEM, 5% FCS, 2 mM L-glutamine). After changing cells to treatment medium, drug compounds were administered 1 hour before LPS stimulation (Sigma-Aldrich; L6529; 1 mg/ml stock in ddH2O, final concentration in well: 100 ng/ml (dilutions in medium)). Cells treated with vehicle, cells treated with LPS alone, as well as cells treated with LPS plus reference item (dexamethasone 10 μM, Sigma D4902) served as controls. After 24 h of stimulation, cell supernatants were collected for the cytokine measurement (V-PLEX Proinflammatory Panel 1 Mouse Kit, K15048D, Mesoscale) and cells were subjected to MTT assay.
MTT Assay: MTT solution was added to each well in a final concentration of 0.5 mg/mL. After 2 h, the MTT containing medium was aspirated. Cells were lysed in 3% SDS and the formazan crystals were dissolved in isopropanol/HCl. Optical density was measured with a Cytation 5 (Biotek) multimode reader at wavelength 570 nm. Values were calculated as percent of control values (vehicle control or lesion control).
After changing cells to treatment medium, HCQ (0.25 μM, 2.5 μM and 25 μM) was applied 1 hour before LPS stimulation (Sigma-Aldrich; L6529; 1 mg/ml stock in ddH2O, final concentration in well: 100 ng/ml (dilutions in medium)).

[2] = test system: SH-SY5Y-hTau441(V337M/R406W) cells; assay: Tau phosphorylation assay (Phospho(Thr231)/Total Tau); format: cell-based, human; conditions: 25 μM HCQ
Procedure: Tau Phosphorylation: SH-SY5Y-hTau441(V337M/R406W) cells were maintained in culture medium (DMEM medium, 10% FCS, 1% NEAA, 1% L-Glutamine, 100 g/mL Gentamycin, 300 μg/mL Geneticin G-418) and differentiated with 10 μM retinoic acid (RA) for 5 days changing medium every 2 to 3 days. Prior to the treatment, cells were seeded onto 24-well plates at a cell density of 2×10^5 cells per well (DIV1). Drug compounds were applied on DIV2. After 24 h of incubation (DIV3), cells on 24-well plates were harvested in 60 μL RIPA-Buffer [50 mM Tris pH 7.4, 1% Nonidet P40, 0.25% Na-deoxy-cholate, 150 mM NaCl, 1 mM EDTA supplemented with freshly added 1 μM NaF, 0.2 mM Na-ortho-vanadate, 80 μM Glycerophosphate, protease (Calbiochem) and phosphatase (Sigma) inhibitor cocktail]. Protein concentration was determined by BCA assay (Pierce, ThermoFisher) and samples were adjusted to a uniform total protein concentration. Total Tau and phosphorylated Tau were determined by immunosorbent assay from Mesoscale Discovery (Phospho(Thr231)/Total Tau Kit K15121D, Mesoscale Discovery).
Tau phosphorylation: SH-SY5Y-hTau441(V337M/R406W) cells were maintained in culture medium (DMEM medium, 10% FCS, 1% NEAA, 1% L-Glutamine, 100 μg/mL Gentamycin, 300 μg/mL Geneticin G-418) and differentiated with 10 μM retinoic acid (RA) for 5 days changing medium every 2 to 3 days. Prior to the treatment, cells were seeded onto 24-well plates at a cell density of 2×10^5 cells per well (DIV1). HCQ (25 μM) was applied on DIV2. After 24 h of incubation (DIV3), cells on 24-well plates were harvested in 60 μL RIPA-Buffer [50 mM Tris pH 7.4, 1% Nonidet P40, 0.25% Na-deoxy-cholate, 150 mM NaCl, 1 mM EDTA supplemented with freshly added 1 μM NaF, 0.2 mM Na-ortho-vanadate, 80 μM Glycerophosphate, protease (Calbiochem) and phosphatase (Sigma) inhibitor cocktail]. Protein concentration was determined by BCA assay (Pierce, ThermoFisher) and samples were adjusted to a uniform total protein concentration. Total Tau and phosphorylated Tau were determined by immunosorbent assay from Mesoscale Discovery (Phospho(Thr231)/Total Tau Kit K15121D, Mesoscale Discovery).
Tau Phosphorylation: SH-SY5Y-hTau441(V337M/R406W) cells were maintained in culture medium [DMEM medium, 10% FCS, 1% nonessential amino acids (NEAA), 1% l-glutamine, gentamycin (100 μg/ml), and geneticin G-418 (300 μg/ml)] and differentiated with 10 μM retinoic acid for 5 days changing medium every 2 to 3 days. […] Protein concentration was determined by BCA assay (Pierce, Thermo Fisher Scientific, Waltham, MA), and samples were adjusted to a uniform total protein concentration. Total tau and phosphorylated tau were determined by immunosorbent assay from Mesoscale Discovery [Phospho(Thr231)/Total Tau Kit K15121D, Mesoscale Discovery, Meso Scale Diagnostics]. […]

[3] = molecular target: STAT3 (Mus musculus, UniProt P42227); assay: Western blot of p-STAT3 in BV-2 phenotypic assays (Aβ1-42 clearance, LPS); format: cell-based; conditions: 25 μM
Procedure: Western blot analyses: Samples for western blot analyses were prepared from 3 assays which provided evidence of HCQ-associated rescue (i.e., Ab1-42 clearance, tau phosphorylation, and LPS-induced neuroinflammation). Samples were prepared identically as described above in section: Effect of HCQ on AD-related phenotypes in cell culture, and scaled up to 24-well format to allow for adequate sample volume. After HCQ treatment, cells were washed once with PBS and harvested in 50 μl 50 mM HEPES+2% SDS lysis buffer. The extracts were then boiled at 95° C. for 5 mins. Analytic methods were identical to those described above in Example 4.
Statistical analyses: Statistical analysis was performed using STATA 16.1. Group differences were evaluated using two-sample t-tests (parametric) to calculate differences in p-STAT3 levels between HCQ treated and control samples. We additionally used the Wilcoxon rank-sum test (non-parametric) to confirm that results were robust to distributional assumptions. Significant differences were indicated as p<0.05.

[4] = test system: Primary cortical neurons; assay: Cell death due to trophic factor withdrawal; format: cell-based, mouse; conditions: HCQ 0.25, 2.5 and 25 μM
Procedure: Cell death due to trophic factor withdrawal: Primary cortical neurons from E18 C57Bl/6 mice were prepared as previously described. On the day of preparation (DIV1), cortical neurons were seeded on poly-D-lysine pre-coated 96-well plates at a density of 3×10^4 cells per well. Every 4-6 days, a half medium exchange using full medium (Neurobasal, 2% B-27, 0.5 mM glutamine, 1% Penicillin-Streptomycin) was carried out. On DIV8, a full medium exchange to B-27 free medium (Neurobasal, 0.5 mM glutamine, 1% Penicillin-Streptomycin) was performed and HCQ (0.25 μM, 2.5 μM and 25 μM) was applied thereafter. […]
YO-PRO™-1 (Invitrogen; Y3603) assay was carried out to detect apoptotic cells in combination with Propidium iodide (PI; P4864 Sigma Aldrich) staining for necrotic cells. […] Plate was measured at the multimode-reader (Cytation 5, BioTek).
MTT solution was added to each well in a final concentration of 0.5 mg/mL. […] Optical density was measured with a Cytation 5 (Biotek) multimode reader at wavelength 570 nm. Values were calculated as percent of control values (vehicle control or lesion control).
The Lactate dehydrogenase (LDH) toxicity assay was carried out on the supernatants collected after treatment using the Cytotoxicity Detection Kit (Roche Diagnostics, Cat. No: 11 644 793 001). […] Absorbance was measured at 492 nm and 620 nm as reference wavelength with a Cytation 5 (Biotek) multimode reader. […]

[5] = macaques; cited from earlier work
[6] = in vivo; cited from earlier work

STAT3, sequence (P42227 whole entry): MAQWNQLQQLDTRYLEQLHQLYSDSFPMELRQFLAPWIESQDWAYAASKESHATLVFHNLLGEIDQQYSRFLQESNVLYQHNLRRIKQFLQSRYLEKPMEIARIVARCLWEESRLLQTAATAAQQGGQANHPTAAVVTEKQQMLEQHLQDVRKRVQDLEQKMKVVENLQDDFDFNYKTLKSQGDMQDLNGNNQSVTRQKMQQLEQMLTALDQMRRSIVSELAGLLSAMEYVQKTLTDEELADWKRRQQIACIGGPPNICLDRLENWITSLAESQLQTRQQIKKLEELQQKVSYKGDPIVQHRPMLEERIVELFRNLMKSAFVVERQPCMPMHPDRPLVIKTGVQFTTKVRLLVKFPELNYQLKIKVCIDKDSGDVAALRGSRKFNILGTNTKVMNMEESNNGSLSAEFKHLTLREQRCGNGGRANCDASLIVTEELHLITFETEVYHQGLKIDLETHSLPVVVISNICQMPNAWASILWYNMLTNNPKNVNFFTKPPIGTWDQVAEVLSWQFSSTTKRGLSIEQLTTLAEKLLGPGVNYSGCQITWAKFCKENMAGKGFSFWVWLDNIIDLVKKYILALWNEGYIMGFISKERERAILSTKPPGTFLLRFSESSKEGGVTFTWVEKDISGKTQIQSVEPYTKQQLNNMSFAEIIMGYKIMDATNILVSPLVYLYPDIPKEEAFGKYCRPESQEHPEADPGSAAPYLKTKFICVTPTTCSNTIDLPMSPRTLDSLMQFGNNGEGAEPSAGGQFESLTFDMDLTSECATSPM

p-STAT3 (Tyr705) ([3]; Aβ1-42 clearance assay, relative to VC): lowered
p-STAT3 (Tyr705) ([3]; LPS-induced neuroinflammation assay, vs VC): significantly lower
Compound: CCN(CCO)CCCC(C)Nc1ccnc2cc(Cl)ccc12 (stereo not shown) [HCQ, hydroxychloroquine]
IL-1b ([1]; 2.5 μM, 25 μM, LPS): dose dependent (2.5 μM<25 μM) reduction
IL-6 ([1]; 2.5 μM, 25 μM, LPS): dose dependent (2.5 μM<25 μM) reduction
IL-10 ([1]; 2.5 μM, 25 μM, LPS): dose dependent (2.5 μM<25 μM) reduction
IL-12p70 ([1]; 2.5 μM, 25 μM, LPS): dose dependent (2.5 μM<25 μM) reduction
TNF-alpha secretion ([1]; 25 μM, LPS): reduction
cell viability ([1]; HCQ in LPS assay): without any adverse effects on cell viability
phosphorylated tau (ptau231) [2]: reduced
total tau [2]: reduced
cell death in response to trophic factor withdrawal [4]: No effects
Kp brain/plasma [5]: 21.99±0.11
serious side effects of retinopathy and cardiac toxicity [6]: relatively rare
